The text below walks through data of ChEMBL document CHEMBL1139720, “Synthesis and antiproliferative activity of (2R,3R)-disubstituted tetrahydropyrans” (2006).

Common to all, as to format: functional
The test system of one assay is WiDr. Description: Antiproliferative activity against human WiDr cells after 48 hrs by SRB assay. On the technique in general: Sulforhodamine B stains cellular protein and so reports cell mass.
Another assay relates to A2780. The assay is described as follows: Antiproliferative activity against human A2780 cells after 48 hrs by SRB assay. The conditions noted are these: A2780, 48 h.
The next assay deals with SW1573. Description: Antiproliferative activity against human SW1573 cells after 48 hrs by SRB assay. The conditions noted are these: SW1573, 48 h.

As usually defined, the GI50 is the concentration at which growth is held to half of that of the control. Low values mean greater sensitivity of the cells, high ones lower sensitivity of the cells. For `COC(=O)/C=C/[C@H]1OCCC[C@H]1O[Si](C)(C)C(C)(C)C`, the figures for the concentration for 50% growth inhibition (GI50) in the assay on WiDr, with A2780 and in the assay with SW1573 were more than 100 µM, 98 µM and more than 100 µM, respectively.

In the case of `CC(C)(C)[Si](C)(C)O[C@@H]1CCCO[C@@H]1/C=C/C(=O)O`, the GI50 with WiDr, in the assay with A2780 and in the assay with SW1573 was more than 100 µM each time.

As usually defined, the LC50 is the concentration that kills 50% of the test population. Lower therefore signals a more lethal substance. Usually TGI stands for the concentration giving total growth inhibition. High values mean lower sensitivity of the cells, low ones greater sensitivity of the cells. As for `COC(=O)/C=C\[C@H]1OCCC[C@H]1O[Si](C)(C)C(C)(C)C`, halving of growth in the assay on WiDr (GI50) required 38 µM. In the assay with A2780, this molecule came in with a GI50 of 7.3 µM, an LC50 of 86 µM and a TGI of 39 µM. Moreover, in the assay on SW1573, the GI50 turned out to be 6.3 µM and the TGI amounted to 68 µM.

As for `CC(C)(C)[Si](C)(C)O[C@@H]1CCCO[C@@H]1/C=C/C(=O)OCc1ccccc1`, the GI50 was determined as 90 µM in the assay with WiDr, 32 µM in the assay on A2780 and 37 µM in the assay on SW1573.

`COC(=O)/C=C/[C@H]1OCCC[C@H]1O`: the 50% growth inhibitory concentration (GI50) in the assay with WiDr, in the assay on A2780 and in the assay on SW1573 was more than 100 µM throughout.

`O=C1C[C@H]2OCCC[C@H]2O1`: the 50% growth inhibitory concentration (GI50) in the assay on WiDr, in the assay on A2780 and in the assay with SW1573 was more than 100 µM each time.

Regarding `CC(C)(C)[Si](C)(C)O[C@@H]1CCCO[C@@H]1/C=C\CO`, the GI50 in the assay on WiDr, with A2780 and in the assay with SW1573 was more than 100 µM throughout.

`CC(C)(C)[Si](C)(C)O[C@@H]1CCCO[C@@H]1CC(=O)OCc1ccccc1`: the concentration for 50% growth inhibition (GI50) in the assay on WiDr was 19 µM; with A2780, 23 µM; in the assay on SW1573, 30 µM.

Turning to `CC(C)(C)[Si](C)(C)OC[C@H]1OCCC[C@H]1O[Si](C)(C)C(C)(C)C`, the GI50 in the assay on WiDr, with A2780 and in the assay on SW1573 was more than 100 µM each time.

Turning to `COC(=O)/C=C/[C@H]1OCCC[C@@H]1O[Si](C)(C)C(C)(C)C`, the GI50 in the assay on WiDr is 84 µM; in the assay with A2780 it was 28 µM; with SW1573 it was 47 µM.

On to `O=C(C[C@H]1OCCC[C@H]1O)OCc1ccccc1`, for which the GI50 with WiDr, in the assay on A2780 and with SW1573 was more than 100 µM throughout.

Regarding `O=C(/C=C/[C@H]1OCCC[C@H]1O)OCc1ccccc1`, the GI50 with WiDr, in the assay on A2780 and in the assay with SW1573 was more than 100 µM in each case.

For the molecule `C=C[C@H]1OCCC[C@H]1O[Si](C)(C)C(C)(C)C`, the GI50 with WiDr was more than 100 µM; with A2780, 86 µM; with SW1573 it was more than 100 µM.

As for `CC(C)(C)[Si](C)(C)O[C@@H]1CCCO[C@@H]1CO`, the GI50 with WiDr, in the assay with A2780 and with SW1573 was more than 100 µM each time.

In the case of `CC(C)(C)[Si](C)(C)O[C@@H]1CCCO[C@@H]1/C=C\C(=O)OCc1ccccc1`, the GI50 in the assay with WiDr was found to be 20 µM; in the assay with A2780, 29 µM; in the assay with SW1573, 26 µM. In addition, the results for the TGI with WiDr, in the assay on A2780 and in the assay with SW1573 were 64 µM, 77 µM and 92 µM, respectively.

For `O=C1C=C[C@H]2OCCC[C@H]2O1`, the GI50 in the assay on WiDr was found to be 39 µM; in the assay with A2780, 8.3 µM; in the assay on SW1573, 5.7 µM. In the assay with A2780, the TGI worked out at 35 µM.
